EP3298025B1, “NEW AMINO ACID SEQUENCES WITH MI[…] DERIVED FROM NAJA ATRA CARDIOTOXIN 1 (CTX-1)” (Università degli Studi di Parma, priority 2015, dated 2016)
“And” between values parts separate entries of the source, which are not always exact repeats. Equal entries are not always repeated. Residues, ends and D or L forms follow the SMILES beside them.

Assays:
Format in all cases: cell-based
[1] = tested on: E. coli ML-35pYC; experiment: membrane permeabilization assay (CENTA outer membrane, ONPG inner membrane); settings: peptide 12.5 µg/ml; absorbance every 10 minutes for 240 minutes
Experimental: Methods: to test the bacterial membrane permeabilization caused by the peptides of the invention, E. coli ML-35pYC strain was used. This bacterial strain express ampicillin resistence, a constitutive expression of cytoplasmic β-galactosidase and is engineered with a plasmid for a periplasmic β-lactamase synthesis. Sixty microliters (60 µl) of bacterial suspension, containing E. coli ML-35pYC strain, were added to 60 µl of ONPG solution (15 mM) or to 60 µl of CENTA (1,5 mM) diluted in phosphate buffer. Subsequently 120 µl of the examined peptide were added, to obtain a final concentration of 12.5 µg/ml (NCP-2=5,4 µM, NCP-3=5.2 µM). The absorbance value was registered at […] for ONPG and at 405 nm for CENTA, every 10 minutes for 240 minutes to assess the reaction's kinetics.

[2] = tested on: Acinetobacter baumanii (human strain); experiment: micro-dilution in liquid medium and transplant on agar, Gram-negative bacteria; settings: 2 hours at 37°C, transplant on agar
Experimental: (§1) For each bacterial strain 3-5 morphologically similar colonies from fresh cultures were taken and inoculated in Brain Heart Infusion broth, then incubated at 37°C in agitation at 225 r.p.m. for about 3-4 hours. Then the bacterial suspension was centrifuged at 1000 G for 20 minutes and the pellet resuspended in phosphate buffer pH 7, 10 mM. The turbidity of the bacterial suspension was measured using a spectrophotometer with absorbance of 600 nm; the range 0.08-0.13 equates to about 10^8 cfu/ml. The bacterial suspension was diluted 1:100 in phosphate buffer 10mM to obtain a bacterial concentration of about 10^6 cfu/ml. Within 30 minutes 50 µl of the suspension (10^6 cfu/ml) were inoculated in each well of the microtiter plate, to obtain a bacterial concentration of about 5x10^5 cfu/ml.
(§2) The peptides ability to inhibit the bacterial growth in liquid cultures was tested. 50 µl of each peptides solutions of about 0,2-50 µM were added in microtiter plates with 96 wells with U-shaped bottom, containing the liquid culture medium and one of these bacterial strains: E coli ATCC 25922, Pseudomonas. Aeruginosa ATCC 27853, Proteus mirabilis ATCC 14153, Burkholderia cepacia ATCC 17759, Moraxella catharralis ATCC 25238 or other wild strains of Klebsiella pneumoniae subsp. pneumoniae, Enterobacter cloacae, Acinetobacter baumanii.
(§3) After 2 hours incubation at 37°C, the bacteria were transplanted on solid medium. As a growth reference, bacterial cultures were grown in absence of peptides.
(§4) The bacterial suspension and peptides were put in contact for 2 hours at 37°C, with differing concentrations of the peptide. Then 20 µl from each well of the plate were taken and transferred on solid culture medium, McConkey agar. The inoculum was uniformly distributed on the agar medium with aid of a sterile disposable handle. After an incubation time of 24 hours at 37°C, the bacterial colonies (cfu) were counted.

[3] = tested on: Acinetobacter baumanii from cloaca (herpetological); experiment: as above; settings: 2 hours at 37°C, transplant on agar
Experimental: as §1, §2, §3, §4

[4] = tested on: Acinetobacter baumanii from cloaca (ornithological); experiment: as above; settings: 2 hours at 37°C, transplant on agar
Experimental: as §1, §2, §3, §4

[5] = tested on: Acinetobacter baumanii from skin (herpetological); experiment: as above; settings: 2 hours at 37°C, transplant on agar
Experimental: as §1, §2, §3, §4

[6] = tested on: Burkholderia cepacia ATCC 17759; experiment: as above; settings: 2 hours at 37°C, transplant on agar
Experimental: as §1, §2, §3, §4

[7] = tested on: E. coli ATCC 25922; experiment: as above; settings: 2 hours at 37°C, transplant on agar
Experimental: as §1, §2, §3, §4

[8] = tested on: Enterobacter cloacae (herpetological); experiment: as above; settings: 2 hours at 37°C, transplant on agar
Experimental: as §1, §2, §3, §4

[9] = tested on: Klebsiella pneumoniae subsp. pneumoniae (herpetological); experiment: as above; settings: 2 hours at 37°C, transplant on agar
Experimental: as §1, §2, §3, §4

[10] = tested on: Moraxella catharralis ATCC 25238; experiment: as above; settings: 2 hours at 37°C, transplant on agar
Experimental: as §1, §2, §3, §4

[11] = tested on: Proteus mirabilis ATCC 14153; experiment: as above; settings: 2 hours at 37°C, transplant on agar
Experimental: as §1, §2, §3, §4

[12] = tested on: Pseudomonas aeruginosa ATCC 27853; experiment: as above; settings: 2 hours at 37°C, transplant on agar
Experimental: as §1, §2, §3, §4

[13] = tested on: Candida albicans ATCC 10231; experiment: micro-dilution in liquid medium and transplant on solid medium, yeasts; settings: 2 hours at 37°C, transplant on agar Sabouraud
Experimental: (§5) Candida albicans ATCC 10231, Candida glabrata ATCC 2001 and Malassetia pachydermatis ATCC 14522 were cultivated in Czapek-Dox broth (DIFCO) medium for 48-72 hours. On the day of the test the fungal culture was centrifuged at 1700G for 15 minutes and the pellet resuspended in phosphate buffer, then put in agitation on an electric vortex to disrupt fungal cell aggregations. The suspension was diluted to get a final optical density of 0,5 of the McFarland scale (about 1-5x10^6 cell/ml) (Branda J.A., Krantz A. Effect of yeast on automated cell counting. Am J Clin Pathol., 2006:126, 248-254.).
(§6) Peptides ability to inhibit the fungal growth in liquid cultures was tested. 50 µl of each peptides solutions of about 0.2-50 µM were added in microtiter plates with 96 wells with U-shaped bottom, with liquid culture medium and one of these fungi: Candida albicans ATCC 10231, Candida glabrata ATCC 2001 and Malassetia pachydermatis ATCC 14522. After 2 hours of incubation at 37°C, fungal suspensions were plated on solid culture medium, agar Sabouraud. Fungal cultures were cultivated without peptides as growth control.
(§7) the fungal suspension and peptides at differing concentrations were in contact for about 2 hours at 37°C. After this incubation, 20 µl from every well of the plate were transplanted on solid culture medium, agar Sabouraud. The inoculum was evenly distributed on the agar with the aid of a sterile disposable handle. After an incubation time of 24 hours at 37°C, the fungal colonies (cfu) were counted.

[14] = tested on: Candida glabrata ATCC 2001; experiment: as above; settings: 2 hours at 37°C, transplant on agar Sabouraud
Experimental: as §5, §6, §7

[15] = tested on: Malassetia pachydermatis ATCC 14522; experiment: as above; settings: 2 hours at 37°C, transplant on agar Sabouraud
Experimental: as §5, §6, §7

SMILES: CC[C@H](C)[C@H](NC(=O)[C@H](CCCCN)NC(=O)[C@H](Cc1ccc(O)cc1)NC(=O)[C@H](CS)NC(=O)[C@H](CC(C)C)NC(=O)[C@H](CC(N)=O)NC(=O)[C@H](CCCCN)NC(=O)CNC(=O)[C@H](C)NC(=O)[C@@H]1CCCN1C(=O)[C@H](CS)NC(=O)[C@@H](NC(=O)[C@H](CCCCN)NC(=O)[C@H](CO)NC(=O)[C@H](C)NC(=O)[C@@H](NC(=O)[C@@H]1CCCN1C(=O)[C@@H](NC(=O)[C@H](CC(C)C)NC(=O)[C@@H](N)CCCCN)[C@@H](C)CC)[C@@H](C)CC)[C@@H](C)O)C(=O)O [NCP-0, K LIPIA SKT CPA GKN LCY KI] (H-KLIPIASKTCPAGKNLCYKI-OH; N-terminus and C-terminus assumed)
- damage to the inner membrane (ONPG) [1]: had not demonstrated activity on outer or inner membrane
- damage to the outer membrane (CENTA) [1]: had not demonstrated activity on outer or inner membrane
- LD90 [2]: 123.77 µg/ml and 57.3 µM
- LD99 [2]: 131.55 µg/ml and 61 µM
- LD90 [3]: 142.80 µg/ml and 66.1 µM
- LD99 [3]: 202.98 µg/ml and 94 µM
- LD90 [4]: 126.205 µg/ml and 58.4 µM
- LD99 [4]: 127,26 µg/ml and 59 µM
- LD99 [5]: 117.96 µg/ml and 54.6 µM
- LD90 [6]: 39.35 µg/ml and 17.8 µM
- LD99 [6]: 39.43 µg/ml and 18.3 µM
- LD90 [7]: 152.02 µg/ml and 70 µM
- LD90 [8]: > 100 µg/ml and > 46.3 µM
- LD99 [8]: > 200 µg/ml and > 92.6 µM
- LD90 [9]: > 100 µg/ml and > 46.3 µM
- LD99 [9]: > 200 µg/ml and > 92.6 µM
- LD90 [10]: 0.8 µg/ml and 0.4 µM
- LD99 [10]: 1.6 µg/ml and 0.7 µM
- LD90 [11]: > 100 µg/ml and > 46.3 µM
- LD99 [11]: > 200 µg/ml and > 92.6 µM
- LD90 [12]: > 100 µg/ml and > 46.3 µM
- LD99 [12]: > 200 µg/ml and > 92.6 µM
- LD90 [13]: > 100 µg/ml and > 46.3 µM
- LD99 [13]: > 200 µg/ml and > 92.6 µM
- LD90 [14]: > 100 µg/ml and > 46.3 µM
- LD99 [14]: > 200 µg/ml and > 92.6 µM
- LD90 [15]: 150.82 µg/ml and 69.8 µM
- LD99 [15]: 151.87 µg/ml and 70.3 µM
